Test results from patent US12686690B2, “Macrocyclic urea orexin receptor agonists” (Merck Sharp & Dohme LLC, priority 2020, dated 2026).
pEC50: −log10 of the molar value.

Target: T1, hOX2R (Homo sapiens, UniProt O43614)
T1 construct: expressed in transfected cells; host or cells: CHO cells (G418 selection)
T1 sequence (O43614 1-444): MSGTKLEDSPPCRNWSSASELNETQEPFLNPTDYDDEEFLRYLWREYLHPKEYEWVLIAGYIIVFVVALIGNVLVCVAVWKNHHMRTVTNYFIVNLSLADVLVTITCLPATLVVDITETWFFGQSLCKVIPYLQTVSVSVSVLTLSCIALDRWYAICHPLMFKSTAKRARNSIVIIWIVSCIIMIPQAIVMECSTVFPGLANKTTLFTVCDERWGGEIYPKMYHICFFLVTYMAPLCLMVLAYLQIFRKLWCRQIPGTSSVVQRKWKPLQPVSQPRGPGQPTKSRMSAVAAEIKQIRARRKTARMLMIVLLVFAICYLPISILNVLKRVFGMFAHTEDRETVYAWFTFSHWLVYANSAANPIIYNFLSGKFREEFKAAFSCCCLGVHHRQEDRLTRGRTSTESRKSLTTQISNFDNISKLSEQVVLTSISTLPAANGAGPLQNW
Experiment: hOX2R IPone assay (orexin receptor agonism)
Format: cell-based
Settings: IPone readout; for hOX2R_Ipone max %act: maximal activation; for pEC50: orexin receptor agonist, read-out: hOX2R_IPone EC50

Row | hOX2R_Ipone max %act [%] | pEC50 | SMILES
1 | 99.08 | 6.74 | CCN1C(=O)N[C@@H](CCC(F)(F)F)CCCCCOc2nc(cn3ccnc23)-c2cc(cc(C)n2)[C@@H]1C [Example 118A, (12S,16R)-13-ethyl-9,12-dimethyl-16-(3,3,3-trifluoropropyl)-12,13,16,17,18,19,20,21-octahydro-6,23-(azeno)-11,7-(metheno)imidazo[2,1-c][1,4,8,13,15]oxatetraazacyclohenicosin-14(15H)-one]
2 | 99.7 | 8.59 | CCN1C(=O)N[C@@H](CCC(F)(F)F)CCCCCOc2nc(cn3ccnc23)-c2cc(cc(C)n2)[C@H]1C [Example 118B, (12R,16R)-13-ethyl-9,12-dimethyl-16-(3,3,3-trifluoropropyl)-12,13,16,17,18,19,20,21-octahydro-6,23-(azeno)-11,7-(metheno)imidazo[2,1-c][1,4,8,13,15]oxatetraazacyclohenicosin-14(15H)-one]
3 | 100.1 | 6.78 | CCN1C(=O)N[C@@H](CCC(F)(F)F)CCCCCOc2nc(cn3ccnc23)-c2cc(nc(C)n2)[C@@H]1C [Example 119A, (12S,16R)-13-ethyl-9,12-dimethyl-16-(3,3,3-trifluoropropyl)-12,13,16,17,18,19,20,21-octahydro-6,23-(azeno)-11,7-(metheno)imidazo[2,1-c][1,4,8,10,13,15]oxapentaazacyclohenicosin-14(15H)-one]
4 | 99.9 | 8.34 | CCN1C(=O)N[C@@H](CCC(F)(F)F)CCCCCOc2nc(cn3ccnc23)-c2cc(nc(C)n2)[C@H]1C [Example 119B, (12R,16R)-13-ethyl-9,12-dimethyl-16-(3,3,3-trifluoropropyl)-12,13,16,17,18,19,20,21-octahydro-6,23-(azeno)-11,7-(metheno)imidazo[2,1-c][1,4,8,10,13,15]oxapentaazacyclohenicosin-14(15H)-one]
5 | 98.4 | 7.75 | CCN1Cc2cc(ccn2)-c2cn3ccnc3c(n2)OCCCCC[C@H](CCC(F)(F)F)NC1=O [Example 120, (16R)-13-ethyl-16-(3,3,3-trifluoropropyl)-12,13,16,17,18,19,20,21-octahydro-6,23-(azeno)-11,7-(metheno)imidazo[2,1-c][1,4,10,13,15]oxatetraazacyclohenicosin-14(15H)-one]
6 | 104.4 | 7.44 | CCN1C(=O)NC(CC(F)(F)CC)CCOCCOc2cn3ncnc3c(n2)-c2cc(ncc2C)C1C [Example 122, (3R,E)-7-(2,2-difluorobutyl)-4-ethyl-25,3-dimethyl-10,13-dioxa-4,6-diaza-1(6,8)-[1,2,4]triazolo[1,5-a]pyrazina-2(4,2)-pyridinacyclotridecaphan-5-one]
7 | 102.5 | 7.86 | CCN1C(=O)N[C@@H](CCC(F)(F)F)CCCCCOc2nc(nn3cc(C)nc23)-c2cc(ncc2OC)[C@H]1C [Example 123, (3R,7R,E)-4-ethyl-25-methoxy-16,3-dimethyl-7-(3,3,3-trifluoropropyl)-13-oxa-4,6-diaza-1(2,4)-imidazo[2,1-f][1,2,4]triazina-2(4,2)-pyridinacyclotridecaphan-5-one]
8 | 97.96 | 8.40 | CCN1C(=O)N[C@@H](CCC(F)(F)F)CCCCCOc2nc(nn3c(C)cnc23)-c2cc(ncc2OC)[C@H]1C [Example 124, (3R,7R,E)-4-ethyl-25-methoxy-17,3-dimethyl-7-(3,3,3-trifluoropropyl)-13-oxa-4,6-diaza-1(2,4)-imidazo[2,1-f][1,2,4]triazina-2(4,2)-pyridinacyclotridecaphan-5-one]
9 | 100.2 | 8.85 | CCN1Cc2cnc(OC)c(c2)-c2nc(c3nccn3n2)OCCCCC[C@H](CCC(C)(F)F)NC1=O [Example 125, (R,E)-7-(3,3-difluorobutyl)-4-ethyl-22-methoxy-13-oxa-4,6-diaza-1(2,4)-imidazo[2,1-f][1,2,4]triazina-2(3,5)-pyridinacyclotridecaphan-5-one]
10 | 96.84 | 8.03 | CCN1C(=O)N[C@@H](CF)CCCCCOc2nc(cn3ccnc23)-c2cc(ncc2OC)[C@H]1C [Example 126, (3R,7R,E)-4-ethyl-7-(fluoromethyl)-25-methoxy-3-methyl-13-oxa-4,6-diaza-1(6,8)-imidazo[1,2-a]pyrazina-2(4,2)-pyridinacyclotridecaphan-5-one]
11 | 100.1 | 8.27 | CCN1C(=O)N[C@@H](CCC(F)F)CCOCCOc2nc(nn3ccnc23)-c2cc(ncc2F)[C@H]1C [Example 127, (3R,7S,E)-7-(3,3-difluoropropyl)-4-ethyl-25-fluoro-3-methyl-10,13-dioxa-4,6-diaza-1(2,4)-imidazo[2,1-f][1,2,4]triazina-2(4,2)-pyridinacyclotridecaphan-5-one]
12 | 102.9 | 7.95 | CCN1C(=O)N[C@@H](CCC(F)F)CCCCCOc2nc(cn3ncnc23)-c2cc(ncc2Cl)[C@H]1C [Example 128, (3R,7R,E)-25-chloro-7-(3,3-difluoropropyl)-4-ethyl-3-methyl-13-oxa-4,6-diaza-1(6,8)-[1,2,4]triazolo[1,5-a]pyrazina-2(4,2)-pyridinacyclotridecaphan-5-one]
13 | 100.2 | 8.83 | CCN1C(=O)N[C@@H](CCC(C)(F)F)CCOCCOc2nc(cn3ncnc23)-c2cc(ncc2C)[C@H]1C [Example 129, (3R,7S,E)-7-(3,3-difluorobutyl)-4-ethyl-25,3-dimethyl-10,13-dioxa-4,6-diaza-1(6,8)-[1,2,4]triazolo[1,5-a]pyrazina-2(4,2)-pyridinacyclotridecaphan-5-one]
14 | 102 | 8.83 | CCN1C(=O)NC(CC(O)C(F)(F)F)CCCCCOc2cn3ncnc3c(n2)-c2cc(ncc2OC)C1C [Example 130, (3R,7R,E)-4-ethyl-25-methoxy-3-methyl-7-((R)-3,3,3-trifluoro-2-hydroxypropyl)-13-oxa-4,6-diaza-1(6,8)-[1,2,4]triazolo[1,5-a]pyrazina-2(4,2)-pyridinacyclotridecaphan-5-one]
15 | 102.2 | 9.11 | CCN1C(=O)NC(CC(O)C(F)(F)F)CCCCCOc2cn3ncnc3c(n2)-c2cc(ncc2OC)C1C [Example 131, (3R,7R,E)-4-ethyl-25-methoxy-3-methyl-7-((S)-3,3,3-trifluoro-2-hydroxypropyl)-13-oxa-4,6-diaza-1(6,8)-[1,2,4]triazolo[1,5-a]pyrazina-2(4,2)-pyridinacyclotridecaphan-5-one]
16 | 102.9 | 8.30 | CCN1C(=O)NC(C(O)CC(F)(F)F)CCCCCOc2cn3ncnc3c(n2)-c2cc(ncc2OC)C1C [Example 132, (3R,7R,E)-4-ethyl-25-methoxy-3-methyl-7-((R)-3,3,3-trifluoro-1-hydroxypropyl)-13-oxa-4,6-diaza-1(6,8)-[1,2,4]triazolo[1,5-a]pyrazina-2(4,2)-pyridinacyclotridecaphan-5-one]
17 | 93.31 | 6.77 | CCN1C(=O)N[C@@H](CCC(F)(F)F)CCS(=O)(=O)CCOc2nc(cn3ncnc23)-c2cc(ncc2OC)[C@H]1C [Example 135, (3R,7S,E)-4-ethyl-25-methoxy-3-methyl-7-(3,3,3-trifluoropropyl)-13-oxa-10-thia-4,6-diaza-1(6,8)-[1,2,4]triazolo[1,5-a]pyrazina-2(4,2)-pyridinacyclotridecaphan-5-one 10,10-dioxide]
